This is an account of results in patent US5510338A, “Phosphonoalkylquinolin-2-ones as novel antagonists of non-NMDA ionotropic excitatory amino acid receptors” (priority 1994, dated 1996).

Some results are limits rather than exact numbers.

One assay has as its system kainate receptors. As to conditions: U.S. Pat. No. 4,657,899, Table I on column 13; cited from earlier work.
The next assay deals with NMDA. The settings on record: U.S. Pat. No. 4,657,899; cited from earlier work.
For assay [1], the system named is CNQX-labeled non-NMDA receptors. In words: Inhibition of EAA receptor ligand binding, CNQX (CNQX-labeled non-NMDA receptors). The settings on record: for selectivity for NMDA vs non-NMDA receptors: in words, from Table II data; for Ki: inhibition of EAA receptor ligand binding, CNQX-labeled non-NMDA receptors, read-out: Receptor Potency (Ki), CNOX.
The target of assay [2] is T1, Glycine (strychnine insensitive glycine binding) (Rattus norvegicus, UniProt P35439).
T1 construct: from tissue
In words: Strychnine insensitive glycine binding. The settings on record: read-out: Receptor Potency (Ki), Glycine. As to the method:
Binding assays for the displacement of ^3 H!AMPA were performed as described by Murphy et al. (Neurochemical Reseach. 12: 775-781 1987!). KA binding assays were performed as described by London et al (Molecular Pharmacology. 15:492-505 1979!); strychnine insensitive glycine binding was evaluated by the method of Snell et al (European Journal of Pharmacology. 156: 105-110 1988!.

A further assay concerns the target GLU. In words: Inhibition of EAA receptor ligand binding, GLU. As to conditions: read-out: Receptor Potency (Ki), GLU.
Assay [3] has as its target KA receptors (KA-induced currents in rat brain mRNA-injected Xenopus oocytes). In words: Inhibition of KA-induced currents in rat brain mRNA-injected Xenopus oocytes. It is filed as cell-based. As to conditions: for Potency to inhibit KA-induced currents, Ki: rat brain mRNA-injected Xenopus oocytes, voltage clamped at -60 to -70 mV, IC50 converted to Ki by Cheng-Prusoff equation.
Experimental: Defolliculated oocytes obtained from Xenopus laevis females were injected with 30-75 ng of poly (A+) mRNA obtained from 21-day old male Sprague-Dawley rats. Oocytes were placed individually in 100 ml of antibiotic-supplemented modified Barthes solution (MBS, containing in mM: NaCl, 88; KCl 1.0; NaHCO3, 2.4 HEPES, 10; MgSO4 0.82; Ca(NO3)2, 0.33) in 96-well sterile plates and cultured for 48-120 hours prior to experimentation. Oocytes were inspected every 24 hours at which time the bathing solution is replaced with fresh MBS.
For electrophysiological studies, oocytes were positioned in a small recording chamber (500 ml) and superfused with antibiotic free MBS supplemented with CaCl2 (final concentration=1.4 mM). Oocytes are impaled with a single glass microelectrode, voltage clamped at -60 to -70 mV, and perfused by gravity feed at a rate of 3-5 ml/min at room temperature. […] Antagonists are coperfused with agonists.
Potencies to inhibit kainic acid-, AMPA- and NMDA/glycine-induced currents are determined from concentration-response curves. IC50 values are converted to Ki values for comparison purposes using the Cheng-Prusoff equation.

In the case of `NC(Cc1ccccc1CCP(=O)(O)O)C(=O)O` (stereo not drawn) [2-amino-3-2-(2-phosphonoethyl)phenyl!propanoic acid], the “binding affinity for kainate receptors (in words)” value (“binding affinity” for short) in the assay with kainate receptors is “very low binding affinity”. In the assay with NMDA, the “NMDA antagonist activity (in words)” value is “antagonists of NMDA”.
For the molecule `O=c1cc(CP(=O)(O)O)c2c(Cl)cc(Cl)cc2[nH]1` [Example 3, 5,7-Dichloro-4-phosphonomethylquinolin-2-one], the “selectivity for NMDA vs non-NMDA receptors” value in assay [1] is recorded as “quite selective”. For the same molecule, the inhibitory constant (Ki) in assay [1] was 38 µM; in assay [2], 28 µM; at GLU it was above 100 µM. Also, in assay [3], the “Potency to inhibit KA-induced currents, Ki” value was 18.2 µM.
As to `O=c1cc(CP(=O)(O)O)c2ccc(I)cc2[nH]1` [Example 4, 7-Iodo-4-phosphonomethylquinolin-2-one], the “selectivity for NMDA vs non-NMDA receptors” value in assay [1] is listed as “not very selective”. In addition, the Ki stood at 26 µM in assay [1], 29 µM in assay [2] and 35 µM at GLU. Besides, the “Potency to inhibit KA-induced currents, Ki” value in assay [3] was 15.6 µM.
As for `O=c1cc(CP(=O)(O)O)c2ccc(Cl)cc2[nH]1` [Example 2, 7-Chloro-4-phosphonomethylquinolin-2-one], in assay [1], the “selectivity for NMDA vs non-NMDA receptors” value is “not very selective”. Besides, the Ki in assay [1] worked out at 59 µM; in assay [2], 10 µM; on GLU it was 30 µM. For the same molecule, in assay [3], the “Potency to inhibit KA-induced currents, Ki” value was 32 µM.
For the molecule `O=C(O)c1cc(CP(=O)(O)O)c2ccc(Cl)cc2n1` [Example 23, 2-Carboxy-7-chloro-4-phosphonomethylquinoline], the Ki in assay [1] was found to be 64 µM; in assay [2], 68 µM. In assay [3], the “Potency to inhibit KA-induced currents, Ki” value amounted to 129 µM.
Take `O=c1cc(P(=O)(O)O)c2ccc(Cl)cc2[nH]1` [Example 24, 7-Chloro-4-phosphonoquinolin-2-one]: the Ki in assay [2] was above 1000 µM; on GLU, above 300 µM. Besides, the “Potency to inhibit KA-induced currents, Ki” value in assay [3] is above 100 µM.
For `O=c1cc(CCP(=O)(O)O)c2ccc(Cl)cc2[nH]1` [Example 1, 7-Chloro-4-phosphonethylquinolin-2-one], the Ki in assay [1] worked out at 91 µM; in assay [2], 231 µM; at GLU, 600 µM.
Consider `NC(Cc1ccccc1CP(=O)(O)O)C(=O)O` (stereo not drawn) [2-amino-3-2-phosphonomethylphenyl!propanoic acid], for which the “binding affinity” value in the assay with kainate receptors is given as “very low binding affinity”. In addition, the “NMDA antagonist activity (in words)” value in the assay with NMDA was “antagonists of NMDA”.
Take `O=C(O)c1cc(CCP(=O)(O)O)c2ccc(Cl)cc2n1` [Example 22, 2-Carboxy-7-chloro-4-phosphonethylquinoline]: the Ki in assay [1] is 384 µM; in assay [2], above 1000 µM; on GLU, above 100 µM. Also, the “Potency to inhibit KA-induced currents, Ki” value in assay [3] was found to be 450 µM.
As for `O=c1cc(CP(=O)(O)O)c2ccc(Cl)c([N+](=O)[O-])c2[nH]1` [Example 25, 7-Chloro-8-nitro-4-phosphonomethylquinolin-2-one], the Ki is 300 µM in assay [1], above 1000 µM in assay [2] and above 1000 µM at GLU.
`NC(CCCc1ccccc1CP(=O)(O)O)C(=O)O` (stereo not drawn) [2-amino-5-2-phosphonomethylphenyl!pentanoic acid]: the “binding affinity” value in the assay with kainate receptors was “very low binding affinity”. Further, the “NMDA antagonist activity (in words)” value in the assay with NMDA is reported as “antagonists of NMDA”.
With `CCC(c1ccccc1CCCP(=O)(O)O)C(N)C(=O)O` (stereo not drawn) [2-amino-3-2-(3-phosphonopropyl) phenyl!pentanoic acid], the “binding affinity” value in the assay with kainate receptors is recorded as “very low binding affinity”. In addition, the “NMDA antagonist activity (in words)” value in the assay with NMDA is given as “antagonists of NMDA”.
Regarding `CCOP(=O)(Cc1cc(=O)[nH]c2cc(Cl)cc(Cl)c12)OCC` [Example 21a, 5,7-Dichloro-4-(diethoxyphosphinyl)methylquinolin-2-one], in assay [1], the Ki was above 100 µM. The Ki in assay [2] was found to be 103 µM. Besides, in assay [3], the “activity in words of related compounds tested” value is “essentially inactive” and the “Potency to inhibit KA-induced currents, Ki” value came to 480 µM.
Regarding `O=c1cc(CP(=O)(O)O)c2c([N+](=O)[O-])c(Cl)ccc2[nH]1` [Example 26, 6-Chloro-5-nitro-4-phosphonomethylquinolin-2-one], the Ki (in assay [1]; in assay [2]; at GLU) was above 1000 µM in each case. Moreover, the “Potency to inhibit KA-induced currents, Ki” value in assay [3] is above 300 µM.
Regarding `O=c1cc(CP(=O)(O)O)c2cc(Cl)c(Cl)cc2[nH]1` [Example 5, 6,7-Dichloro-4-phosphonomethylquinolin-2-one], in assay [1], the “selectivity for NMDA vs non-NMDA receptors” value was “quite selective” and the Ki stood at 15 µM. Further, the Ki at GLU is above 100 µM. In assay [3], the “Potency to inhibit KA-induced currents, Ki” value worked out at 9.6 µM.

For orientation: Ki means the dissociation constant of the complex between target and ligand, obtained from inhibition or displacement.
